Results: patent US20250057960A1, “OLIGOSACCHARIDE COMPLEXES AND USES” (BioNTech SE, priority 2021, published 2025)

Experiments:
hPBMCs = test: Secretion of pro-inflammatory cytokines and chemokines in hPBMCs after transfection with modRNA formulations (Example 10); assay type: cell-based, human; settings: incorporated into cationic oligosaccharide (JLF218)+Tween40 modRNA complex, 1:0.5:0.5 molar ratio, N/P6; 24 hours after transfection; FIGS. 10A to 10D
Excerpt: The present example provides complexes comprising a third component which can inhibit the immune response against the expressed protein from the delivered RNA, avoiding pro-inflammatory signals that can hamper the therapeutic effect of RNA-therapy. In the present experiment, a TLR4 inhibitor molecule, TAK-242, was used alone or together with a wide spectrum immunosuppressor, dexamethasone, in combination with cationic oligosaccharides described herein+Tween40 to formulate modRNA encoding for luciferase.
In the first part of the experiment, secretion of pro-inflammatory cytokines in hPBMCs was evaluated for two different cationic oligosaccharides: JLF218 and PRX093, whereas different combinations including TAK-242 and/or Dexamethasone are tested. […] IL-6, TNF-α, IL-1β, IFN-γ, MIP-1β, IP-10 and MCP-1 secretion after 24 hours of transfection of 5×105 hPMBCs was evaluated in the supernatants using MSD Kit Standard Protocol. Primary human hepatocytes were transfected with a dose variation between 0.01-1 μg of modRNA and luciferase expression is evaluated over the course of 6 days.
FIG. 10A is a scatter plot illustrating quantified IL-6 secretion in hPBMCs upon exposure to different doses of tested formulations. FIG. 10B is a scatter plot illustrating quantified TNF-α secretion in hPBMCs upon exposure to different doses of tested formulations. […]

human PBMCs = test: Pro-inflammatory cytokine secretion in human PBMCs with alternative TLR inhibitors (Example 14); assay type: cell-based; settings: in JLF218+Tween40+TL2-C29 (1:0.5:0.5) modRNA formulation, N/P6; 24 hours after transfection
Procedure: The present example evaluated the impact of different TLR inhibitors. Pro-inflamatory cytokine secretion in human PBMCs was evaluated for two different oligosaccharide formulations (JLF218 and JLF244) in combination with either TAK-242 or TL2-C29. Six formulations were tested, as illustrated in table below: […]
All formulations were complexed with modRNA (coding for firefly luciferase) formulated at N/P6. Formulations were complexed in MBG Buffer (final concentration 5% w/v Glucose, 10 mM MES, pH 6.1), at RNA final concentration of 0.15 mg/mL and the mixing ratio of the RNA containing solution and the oligosccharide+Tween40 (+TAK-242 or TL2-C29 as indicated) containing solution was 9:1 (v:v) for all the cases.
IL-6, TNFα, IL1b, IFNg, MIP1b, IP10 and MCP1 secretion was evaluated 24 hours after transfection of 1e^6 human PMBCs in supernatant using the MSD Kit Standard Protocol. Cell viability was evaluated using a XTT Standard Assay. In the following figures, C29 refers to TL2-C29. FIG. 12A is a plot illustrating IL-6 secretion of human PBMCs (hPMBCs) for different doses of tested formulations. FIG. 12B is a plot illustrating TNFa secretion of hPBMCs for different doses of tested formulations. FIG. 12C is a plot illustrating IL1b secretion of hPBMCs for different doses of tested formulations. […]

Compound | secretion of pro-inflammatory cytokines (IL-6, TNF-α, IL-1β, IFN-γ) (hPBMCs) | secretion of pro-inflammatory cytokines (human PBMCs)
CCOC(=O)C1=CCCC[C@H]1S(=O)(=O)Nc1ccc(F)cc1Cl [TAK-242] | reduction of pro-inflammatory cytokines | –
COc1cccc(/C=N/c2cccc(C(=O)O)c2C)c1O [TL2-C29] | – | able to inhibit
